Test results published in patent publication US20230017045A1, “PYRIDINE AND PYRIMIDINE CARBOXYLATE HERBICIDES AND METHODS OF USE THEREOF” (Dow AgroSciences LLC, priority 2017, published 2023).
Read-outs that look alike come from different tables or passages of the source.

What was measured:
test plant species = assay: Post-emergent herbicidal activity test (greenhouse, foliar spray, visual growth reduction); assay type: in vivo; conditions: post-emergence, 336 h, 140 g ai/ha
Summary of the method: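 Visual percent injury (0-100) rated 14 d after treatment, relative to nontreated and solvent-blank plants. Test plants at first or second true leaf stage received an overhead track-sprayer application at 187 L/ha. Compounds were formulated in aqueous acetone/DMSO carrier containing crop oil concentrate and X-77 surfactant.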

[1] = ALOMY: blackgrass (Alopecurus myosuroides), 14 days after application, read-out: Visual Growth Reduction (%) 14 Days After Application, ALOMY
[2] = AMARE: redroot pigweed (Amaranthus retroflexus), 14 days after application, read-out: Visual Growth Reduction (%) 14 Days After Application, AMARE
[3] = AVEFA: wild oat (Avena fatua), 14 days after application, read-out: Visual Growth Reduction (%) 14 Days After Application, AVEFA
[4] = CHEAL: lambsquarters (Chenopodium album), 14 days after application, read-out: Visual Growth Reduction (%) 14 Days After Application, CHEAL
[5] = CIRAR: canada thistle (Cirsium arvense), 14 days after application, read-out: Visual Growth Reduction (%) 14 Days After Application, CIRAR
[6] = CYPES: yellow nutsedge (Cyperus esculentus), 14 days after application, read-out: Visual Growth Reduction (%) 14 Days After Application, CYPES
[7] = DIGSA: crabgrass (Digitaria sanguinalis), 14 days after application, read-out: Visual Growth Reduction (%) 14 Days After Application, DIGSA
[8] = ECHCG: barnyardgrass (Echinochloa crus-galli), 14 days after application, read-out: Visual Growth Reduction (%) 14 Days After Application, ECHCG
[9] = IPOHE: ivy-leaf morning glory (Ipomoea hederacea), 14 days after application, read-out: Visual Growth Reduction (%) 14 Days After Application, IPOHE
[10] = KCHSC: kochia (Bassia scoparia), 14 days after application, read-out: Visual Growth Reduction (%) 14 Days After Application, KCHSC
[11] = ORYSA: rice (Oryza sativa), 14 days after application, read-out: Visual Growth Reduction (%) 14 Days After Application, ORYSA
[12] = SETFA: giant foxtail (Setaria faberi), 14 days after application, read-out: Visual Growth Reduction (%) 14 Days After Application, SETFA
[13] = SORVU: grain sorghum (Sorghum vulgare), 14 days after application, read-out: Visual Growth Reduction (%) 14 Days After Application, SORVU
[14] = STEME: common chickweed (Stellaria media), 14 days after application, read-out: Visual Growth Reduction (%) 14 Days After Application, STEME
[15] = TRZAS: wheat, spring (Triticum aestivum), 14 days after application, read-out: Visual Growth Reduction (%) 14 Days After Application, TRZAS
[16] = blackgrass (Alopecurus myosuroides), 14 Days After Application, read-out: Visual Growth Reduction (%) ALOMY
[17] = canada thistle (Cirsium arvense), 14 Days After Application, read-out: Visual Growth Reduction (%) CIRAR
[18] = crabgrass (Digitaria sanguinalis), 14 Days After Application, read-out: Visual Growth Reduction (%) DIGSA
[19] = lambsquarters (Chenopodium album), 14 Days After Application, read-out: Visual Growth Reduction (%) CHEAL
[20] = redroot pigweed (Amaranthus retroflexus), 14 Days After Application, read-out: Visual Growth Reduction (%) AMARE
[21] = wild oat (Avena fatua), 14 Days After Application, read-out: Visual Growth Reduction (%) AVEFA
[22] = yellow nutsedge (Cyperus esculentus), 14 Days After Application, read-out: Visual Growth Reduction (%) CYPES

SMILES	melting point [°C]	pest or weed control at 140 g/ha (test plant species; [1]) [%]	pest or weed control at 140 g/ha (test plant species; [2]) [%]	pest or weed control at 140 g/ha (test plant species; [3]) [%]	pest or weed control at 140 g/ha (test plant species; [4]) [%]	pest or weed control at 140 g/ha (test plant species; [5]) [%]	pest or weed control at 140 g/ha (test plant species; [6]) [%]	pest or weed control at 140 g/ha (test plant species; [7]) [%]	pest or weed control at 140 g/ha (test plant species; [8]) [%]	pest or weed control at 140 g/ha (test plant species; [9]) [%]	pest or weed control at 140 g/ha (test plant species; [10]) [%]	pest or weed control at 140 g/ha (test plant species; [11]) [%]	pest or weed control at 140 g/ha (test plant species; [12]) [%]	pest or weed control at 140 g/ha (test plant species; [13]) [%]	pest or weed control at 140 g/ha (test plant species; [14]) [%]	pest or weed control at 140 g/ha (test plant species; [15]) [%]	pest or weed control at 140 g/ha (test plant species; [16]) [%]	pest or weed control at 140 g/ha (test plant species; [17]) [%]	pest or weed control at 140 g/ha (test plant species; [18]) [%]	pest or weed control at 140 g/ha (test plant species; [19]) [%]	further results
O=C(OCc1ccccc1)c1nc(-c2ccc(C(F)(F)F)cc2Cl)ccc1Cl [F44, benzyl 3-chloro-6-(2-chloro-4-(trifluoromethyl)phenyl)picolinate]	56 to 57	30 to 44	95 to 100	45 to 59	95 to 100	95 to 100	0 to 29	75 to 84	45 to 59	95 to 100	85 to 94	0 to 29	85 to 94	85 to 94	0 to 29	75 to 84					
COC(=O)c1nc(-c2ccc(C(F)(F)F)cc2Cl)c(Cl)cc1Cl [F103, Methyl 3,5-dichloro-6-(2-chloro-4-(trifluoromethyl)phenyl)picolinate]	85 to 86	0 to 29	60 to 74	0 to 29	75 to 84	85 to 94	0 to 29	30 to 44	0 to 29	95 to 100	75 to 84	0 to 29	60 to 74	75 to 84	0 to 29	0 to 29					
COC(=O)c1nc(-c2ccc(C(F)(F)F)nc2F)c(F)cc1Cl [F354, methyl 5-chloro-2′,3-difluoro-6′-(trifluoromethyl)-[2,3′-bipyridine]-6-carboxylate]	84 to 86								75 to 84	95 to 100	60 to 74	0 to 29	75 to 84	85 to 94	0 to 29	60 to 74	0 to 29	75 to 84	85 to 94	75 to 84	pest or weed control at 140 g/ha (test plant species; [20]): 60 to 74%; pest or weed control at 140 g/ha (test plant species; [21]): 30 to 44%; pest or weed control at 140 g/ha (test plant species; [22]): 0 to 29%
COC(=O)c1nc(-c2ccc(S(C)(=O)=O)cc2F)c(F)cc1Cl [F379, Methyl 3-chloro-5-fluoro-6-(2-fluoro-4-(methylsulfonyl)phenyl)picolinate]	179 to 181								75 to 84	95 to 100	85 to 94	0 to 29	75 to 84	75 to 84	0 to 29	60 to 74	0 to 29	0 to 29	60 to 74	60 to 74	pest or weed control at 140 g/ha (test plant species; [20]): 60 to 74%; pest or weed control at 140 g/ha (test plant species; [21]): 0 to 29%; pest or weed control at 140 g/ha (test plant species; [22]): 0 to 29%

The next lines start with results.

melting point [°C]	SMILES	pest or weed control at 140 g/ha (test plant species; [1]) [%]	pest or weed control at 140 g/ha (test plant species; [2]) [%]	pest or weed control at 140 g/ha (test plant species; [3]) [%]	pest or weed control at 140 g/ha (test plant species; [4]) [%]	pest or weed control at 140 g/ha (test plant species; [5]) [%]	pest or weed control at 140 g/ha (test plant species; [6]) [%]	pest or weed control at 140 g/ha (test plant species; [7]) [%]	pest or weed control at 140 g/ha (test plant species; [8]) [%]	pest or weed control at 140 g/ha (test plant species; [9]) [%]	pest or weed control at 140 g/ha (test plant species; [10]) [%]	pest or weed control at 140 g/ha (test plant species; [11]) [%]	pest or weed control at 140 g/ha (test plant species; [12]) [%]	pest or weed control at 140 g/ha (test plant species; [13]) [%]	pest or weed control at 140 g/ha (test plant species; [14]) [%]	pest or weed control at 140 g/ha (test plant species; [15]) [%]	pest or weed control at 140 g/ha (test plant species; [16]) [%]	pest or weed control at 140 g/ha (test plant species; [17]) [%]	pest or weed control at 140 g/ha (test plant species; [18]) [%]	pest or weed control at 140 g/ha (test plant species; [19]) [%]	further results
127 to 128	COC(=O)c1nc(-c2ccc(C(F)(F)F)cc2Cl)cc(F)c1Cl [F109, methyl 3-chloro-6-(2-chloro-4-(trifluoromethyl)phenyl)-4-fluoropicolinate]	0 to 29	0 to 29	0 to 29	0 to 29	0 to 29	0 to 29	0 to 29	0 to 29	0 to 29	0 to 29	0 to 29	0 to 29	0 to 29		0 to 29					
155.2 to 163.3	COc1ncc(Cl)cc1-c1ccc(Cl)c(C(=O)O)n1 [F134, 5,5′-Dichloro-2′-methoxy-[2,3′-bipyridine]-6-carboxylic acid]	0 to 29	0 to 29	0 to 29	0 to 29	0 to 29	0 to 29	0 to 29	0 to 29	0 to 29	0 to 29	0 to 29	0 to 29	0 to 29	0 to 29	0 to 29					
